Laboratory results from patent US20070128217A1 (priority 2003, published 2007).

What was measured:
[1] = system: control sera (pooled serum of ten healthy LUMC hospital workers; commercial negative donor pooled serum from the Dutch bloodbank); format: binding, human; design: Binding of Control serum LUMC to linear peptides / Binding of Control serum Blood-bank to linear peptides / Binding of Control serum LUMC to looped peptides / Binding of Control Serum Blood-Bank to Looped peptides / Binding of Control serum LUMC to linear peptides of the protein M of SARS-CoV Urbani / Binding of Control serum Blood-bank to linear peptides of the protein M of SARS-CoV Urbani / Binding of Control serum LUMC to looped peptides of the protein M of SARS-CoV Urbani / Binding of Control Serum Blood-Bank to Looped peptides of the protein M of SARS-CoV Urbani: unit not given here
[2] = system: rabbit serum obtained by immunizing a rabbit with the SARS-CoV strain Frankfurt 1; format: binding; design: Binding of a rabbit serum to linear peptides / Binding of a rabbit serum to looped peptides / Rabbit serum linear peptides / Rabbit serum looped peptides / Binding of a rabbit serum to linear peptides of protein N of SARS-CoV Urbani (Rabbit serum linear peptides) / Binding of a rabbit serum to looped/cyclic peptides of protein N of SARS-CoV Urbani (Rabbit serum looped peptides): unit not given here
[3] = system: antibodies in sera from SARS patients (sera 1a, 1b, 2, 6, 37, 62, London, SARS-yellow, SARS-green); format: binding, human; design: Binding of serum 6 to linear peptides of protein X1 of SARS-CoV Urbani / Binding of serum 37 to linear peptides of protein X1 of SARS-CoV Urbani / Binding of serum 6 to looped/cyclic peptide (PEPSCAN-ELISA) / Binding of serum 37 to looped/cyclic peptide (PEPSCAN-ELISA) / Binding of serum 37 to looped/cyclic peptides of protein X1 of SARS-CoV Urbani / Binding of serum 6 to linear peptides of protein X2 / Binding of serum 37 to linear peptides of protein X2 / Binding of serum 37 to looped/cyclic peptides of protein X2 of SARS-CoV Urbani / Binding of serum 6 to linear peptides of protein M of SARS-CoV Urbani / Binding of serum 37 to linear peptides of protein M of SARS-CoV Urbani / Binding of serum 6 to looped/cyclic peptides of protein M of SARS-CoV Urbani / Binding of serum 37 to looped/cyclic peptides of protein M of SARS-CoV Urbani / Binding of serum 6 to linear peptides of protein X3 of SARS-CoV Urbani / Binding of serum 37 to linear peptides of protein X3 of SARS-CoV Urbani / Binding of serum 37 to looped/cyclic peptides of protein X3 of SARS-CoV Urbani / Binding of serum 6 to linear peptides of protein X4 of SARS-CoV Urbani / Binding of serum 37 to linear peptides of protein X4 of SARS-CoV Urbani / Binding of serum 37 to looped/cyclic peptides of protein X4 of SARS-CoV Urbani / Binding of serum 6 to linear peptides of protein X5 of SARS-CoV Urbani / Binding of serum 37 to linear peptides of protein X5 of SARS-CoV Urbani / Binding of serum 37 to looped/cyclic peptides of protein X5 of SARS-CoV Urbani / Binding of serum 6 to linear peptides of protein N of SARS-CoV Urbani / Binding of serum 37 to linear peptides of protein N of SARS-CoV Urbani / Binding of serum 6 to linear peptide (PEPSCAN-ELISA) / Binding of serum 1a to looped/cyclic peptides of protein N of SARS-CoV Urbani / Binding of serum 1b to looped/cyclic peptides of protein N of SARS-CoV Urbani / Binding of serum 2 to looped/cyclic peptides of protein N of SARS-CoV Urbani / Binding of serum 6 to looped/cyclic peptides of protein N of SARS-CoV Urbani / Binding of serum 37 to looped/cyclic peptides of protein N of SARS-CoV Urbani / Binding of serum 62 to looped/cyclic peptides of protein N of SARS-CoV Urbani / Binding of serum London to looped/cyclic peptides of protein N of SARS-CoV Urbani / Binding of serum SARS-green to looped/cyclic peptides of protein N of SARS-CoV Urbani: unit not given here

## TCTPNVTINCQDPAG
[1]
  Binding of Control Serum Blood-Bank to Looped peptides: 0.4
  Binding of Control serum Blood-bank to linear peptides: 0.7
  Binding of Control serum LUMC to linear peptides: 0.5
  Binding of Control serum LUMC to looped peptides: 0.2
[2]
  Rabbit serum linear peptides: 0.5
  Rabbit serum looped peptides: 0.0
[3]
  Binding of serum 1a to linear peptides of protein X5 of SARS-CoV Urbani: 0.8
  Binding of serum 1a to looped/cyclic peptides of protein X5 of SARS-CoV Urbani: 0.2
  Binding of serum 1b to linear peptides of protein X5 of SARS-CoV Urbani: 0.6
  Binding of serum 1b to looped/cyclic peptides of protein X5 of SARS-CoV Urbani: 0.0
  Binding of serum 2 to linear peptides of protein X5 of SARS-CoV Urbani: 0.6
  Binding of serum 2 to looped/cyclic peptides of protein X5 of SARS-CoV Urbani: 0.1
  Binding of serum 6 to linear peptides of protein X5 of SARS-CoV Urbani: 0.8
  Binding of serum 6 to looped/cyclic peptides of protein X5 of SARS-CoV Urbani: 0.1
  Binding of serum 37 to linear peptides of protein X5 of SARS-CoV Urbani: 0.7
  Binding of serum 37 to looped/cyclic peptides of protein X5 of SARS-CoV Urbani: 0.1
  Binding of serum 62 to linear peptides of protein X5 of SARS-CoV Urbani: 0.8
  Binding of serum 62 to looped/cyclic peptides of protein X5 of SARS-CoV Urbani: 0.1
  Binding of serum London to linear peptides of protein X5 of SARS-CoV Urbani: 0.8
  Binding of serum London to looped/cyclic peptides of protein X5 of SARS-CoV Urbani: 0.1
  Binding of serum SARS-green to linear peptides of protein X5 of SARS-CoV Urbani: 0.8
  Binding of serum SARS-green to looped/cyclic peptides of protein X5 of SARS-CoV Urbani: 0.2
  Binding of serum SARS-yellow to linear peptides of protein X5 of SARS-CoV Urbani: 0.2
  Binding of serum SARS-yellow to looped/cyclic peptides of protein X5 of SARS-CoV Urbani: 0.0

## TCTSTHFAFACADGT
[1]
  Binding of Control Serum Blood-Bank to Looped peptides: 0.7
  Binding of Control serum Blood-bank to linear peptides: 0.8
  Binding of Control serum LUMC to linear peptides: 0.9
  Binding of Control serum LUMC to looped peptides: 0.8
[2]
  Rabbit serum linear peptides: 0.5
  Rabbit serum looped peptides: 0.7
[3]
  Binding of serum 1a to linear peptides of protein X4 of SARS-CoV Urbani: 0.8
  Binding of serum 1a to looped/cyclic peptides of protein X4 of SARS-CoV Urbani: 0.8
  Binding of serum 1b to linear peptides of protein X4 of SARS-CoV Urbani: 0.7
  Binding of serum 1b to looped/cyclic peptides of protein X4 of SARS-CoV Urbani: 0.6
  Binding of serum 2 to linear peptides of protein X4 of SARS-CoV Urbani: 0.5
  Binding of serum 2 to looped/cyclic peptides of protein X4 of SARS-CoV Urbani: 0.8
  Binding of serum 6 to linear peptides of protein X4 of SARS-CoV Urbani: 0.7
  Binding of serum 6 to looped/cyclic peptides of protein X4 of SARS-CoV Urbani: 0.6
  Binding of serum 37 to linear peptides of protein X4 of SARS-CoV Urbani: 0.7
  Binding of serum 37 to looped/cyclic peptides of protein X4 of SARS-CoV Urbani: 0.7
  Binding of serum 62 to linear peptides of protein X4 of SARS-CoV Urbani: 0.9
  Binding of serum 62 to looped/cyclic peptides of protein X4 of SARS-CoV Urbani: 0.8
  Binding of serum London to linear peptides of protein X4 of SARS-CoV Urbani: 0.8
  Binding of serum London to looped/cyclic peptides of protein X4 of SARS-CoV Urbani: 0.3
  Binding of serum SARS-green to linear peptides of protein X4 of SARS-CoV Urbani: 0.6
  Binding of serum SARS-green to looped/cyclic peptides of protein X4 of SARS-CoV Urbani: 0.5
  Binding of serum SARS-yellow to linear peptides of protein X4 of SARS-CoV Urbani: 0.6
  Binding of serum SARS-yellow to looped/cyclic peptides of protein X4 of SARS-CoV Urbani: 0.8

## TDSGFAAYNRYRIGN
[1]
  Binding of Control Serum Blood-Bank to Looped peptides of the protein M of SARS-CoV Urbani: 0.6
  Binding of Control serum Blood-bank to linear peptides of the protein M of SARS-CoV Urbani: 0.7
  Binding of Control serum LUMC to linear peptides of the protein M of SARS-CoV Urbani: 0.3
  Binding of Control serum LUMC to looped peptides of the protein M of SARS-CoV Urbani: 0.7
[2]
  Rabbit serum linear peptides: 0.0
  Rabbit serum looped peptides: 0.5
[3]
  Binding of serum 1a to linear peptides of protein M of SARS-CoV Urbani: 0.6
  Binding of serum 1a to looped/cyclic peptides of protein M of SARS-CoV Urbani: 0.7
  Binding of serum 1b to linear peptides of protein M of SARS-CoV Urbani: 0.4
  Binding of serum 1b to looped/cyclic peptides of protein M of SARS-CoV Urbani: 0.5
  Binding of serum 2 to linear peptides of protein M of SARS-CoV Urbani: 0.5
  Binding of serum 2 to looped/cyclic peptides of protein M of SARS-CoV Urbani: 0.6
  Binding of serum 6 to linear peptides of protein M of SARS-CoV Urbani: 0.4
  Binding of serum 6 to looped/cyclic peptides of protein M of SARS-CoV Urbani: 0.9
  Binding of serum 37 to linear peptides of protein M of SARS-CoV Urbani: 0.4
  Binding of serum 37 to looped/cyclic peptides of protein M of SARS-CoV Urbani: 0.7
  Binding of serum 62 to linear peptides of protein M of SARS-CoV Urbani: 0.6
  Binding of serum 62 to looped/cyclic peptides of protein M of SARS-CoV Urbani: 0.7
  Binding of serum London to linear peptides of protein M of SARS-CoV Urbani: 0.3
  Binding of serum London to looped/cyclic peptides of protein M of SARS-CoV Urbani: 0.2
  Binding of serum SARS-green to linear peptides of protein M of SARS-CoV Urbani: 0.3
  Binding of serum SARS-green to looped/cyclic peptides of protein M of SARS-CoV Urbani: 0.1
  Binding of serum SARS-yellow to linear peptides of protein M of SARS-CoV Urbani: 0.0
  Binding of serum SARS-yellow to looped/cyclic peptides of protein M of SARS-CoV Urbani: 0.8

## TDTIVVTEGDGISTP
[1]
  Binding of Control Serum Blood-Bank to Looped peptides: 0.4
  Binding of Control serum Blood-bank to linear peptides: 0.5
  Binding of Control serum LUMC to linear peptides: 0.5
  Binding of Control serum LUMC to looped peptides: 0.4
[2]
  Binding of a rabbit serum to linear peptides: 0.1
  Binding of a rabbit serum to looped peptides: 0.3
[3]
  Binding of serum 1a to linear peptides of protein X1 of SARS-CoV Urbani: 0.6
  Binding of serum 1a to looped/cyclic peptides of protein X1 of SARS-CoV Urbani: 0.4
  Binding of serum 1b to linear peptides of protein X1 of SARS-CoV Urbani: 0.5
  Binding of serum 1b to looped/cyclic peptides of protein X1 of SARS-CoV Urbani: 0.3
  Binding of serum 2 to linear peptides of protein X1 of SARS-CoV Urbani: 0.4
  Binding of serum 2 to looped/cyclic peptides of protein X1 of SARS-CoV Urbani: 0.2
  Binding of serum 6 to linear peptides of protein X1 of SARS-CoV Urbani: 0.5
  Binding of serum 6 to looped/cyclic peptides of protein X1 of SARS-CoV Urbani: 0.2
  Binding of serum 37 to linear peptides of protein X1 of SARS-CoV Urbani: 0.5
  Binding of serum 37 to looped/cyclic peptides of protein X1 of SARS-CoV Urbani: 0.3
  Binding of serum 62 to linear peptides of protein X1 of SARS-CoV Urbani: 0.4
  Binding of serum 62 to looped/cyclic peptides of protein X1 of SARS-CoV Urbani: 0.3
  Binding of serum London to linear peptides of protein X1 of SARS-CoV Urbani: 0.2
  Binding of serum London to looped/cyclic peptides of protein X1 of SARS-CoV Urbani: 0.1
  Binding of serum SARS-green to linear peptides of protein X1 of SARS-CoV Urbani: 0.3
  Binding of serum SARS-green to looped/cyclic peptides of protein X1 of SARS-CoV Urbani: 0.2
  Binding of serum SARS-yellow to linear peptides of protein X1 of SARS-CoV Urbani: 0.2
  Binding of serum SARS-yellow to looped/cyclic peptides of protein X1 of SARS-CoV Urbani: 0.4
